From PubChem BioAssay AID2823 (Broad Institute, 2010)
Active and inactive are the calls of the source. How the calls were made is not given here.

Each molecule was assayed against RanGTP-importin-beta complex (human Ran / KPNB1) (assay: Ran–importin-beta interaction inhibitors, confirmation, biochemical, FRET, CFP/YFP, cell-free homogeneous (AID 2823)). Conditions: CFP-Ran/YFP-importin-beta FRET ratio.

| Compound | IC50 |
| --- | --- |
| COc1ccc(Br)cc1/C=C/C(=O)NC(=S)Nc1ccc(CN2CCOCC2)cc1 | > 50 µM (inactive) |
| CC(=O)N1CCC(N(CCN2CCOCC2)C(=O)Nc2ccc(Cl)c(Cl)c2)CC1 | > 50 µM (inactive) |
| c1ccc2sc(NC3=NCN(CCN4CCOCC4)CN3)nc2c1 | > 50 µM (inactive) |
| O=C(Cn1nnc2ccccc21)N/N=C\c1cccs1 | > 50 µM (inactive) |
| Cc1cccn2c(=O)c(/C=C(\C#N)C(N)=O)c(Oc3ccccc3)nc12 | 1.96 µM |
| Oc1ccc(/C=N/Nc2cc(N3CCOCC3)nc(N3CCOCC3)n2)cc1 | > 50 µM (inactive) |
| Cc1cc(Cl)c(S(=O)(=O)N2CCCC2)cc1OCC(=O)NC1CCCCC1 | > 50 µM (inactive) |
| COCCCn1c(N)c(C(=O)OC(C)COC)c2nc3ccccc3nc21 (stereo not given) | 24.8 µM |
| CCc1ccc(C2C(C#N)=C(N)SC(N)=C2C#N)cc1 | > 50 µM (inactive) |
| CC1(C)CC(=O)C/C(=N\NC(=O)C2CC23CCC3)C1 (stereo not given) | > 50 µM (inactive) |
| Cc1nc(Nc2cnc(/C=C/c3cc(C(=O)Nc4cccc(C(F)(F)F)c4)ccc3C)cn2)cc(N2CCNCC2)n1 | 19.7 µM |
| Cc1csc2ncnc(NC3CCN(Cc4ccccc4)CC3)c12 | > 50 µM (inactive) |
| CCN(CC)C(=O)Oc1ccc2c(c1)O/C(=C\c1ccco1)C2=O | 7.92 µM |
| CSc1sc(C)cc1C1C(C#N)=C(N)N(c2cccnc2)C2=C1C(=O)CCC2 (stereo not given) | 48 µM |
| CCCOC(=O)CSC1=C(C#N)C(c2ccccc2OC)C(C#N)C(=O)N1 (stereo not given) | > 50 µM (inactive) |
| N#Cc1ccc(/C=C(\C(=O)C(=O)O)c2ccc3ccccc3n2)cc1 | 12 µM |
| C#CCOc1ccc(C2C3=C(CC(C)(C)CC3=O)N(CC(=O)O)C3=C2C(=O)CC(C)(C)C3)cc1OC | 32 µM |
| Cn1c(SCc2ccccc2F)nnc1-c1ccccn1 | > 50 µM (inactive) |
| Cc1cccc(Nc2nnc(SC/C(O)=C(\C#N)c3nc4ccccc4[nH]3)s2)c1C | > 50 µM (inactive) |
| Cc1ccc(-c2cc3nc(-c4ccccc4)cc(N4CCC5(CC4)OCCO5)n3n2)cc1 | 44 µM |
| COCc1cc(CN2CCN(C)CC2)c(O)c2ncccc12 | > 50 µM (inactive) |
| Cc1cc(NC(=O)c2sc3ccccc3c2O)no1 | 26.3 µM |
| COc1cc(/C=C(\C#N)C(=O)Nc2cccc3ncccc23)cc(OC)c1OC | > 50 µM (inactive) |
| COCCNC(=S)N1CCCN(c2nc3cc(C)ccc3cc2C#N)CC1 | 29.5 µM |
| CCCOC(=O)CSC1=C(C#N)C(c2ccccc2OCC)C(C#N)C(=O)N1 (stereo not given) | > 50 µM (inactive) |
| CCOC(=O)C1CCN(c2cc(=O)n(C3CCCCC3)c(=O)[nH]2)CC1 | > 50 µM (inactive) |
| O=C(Cc1cc(=O)oc2cc(O)ccc12)NCC1CCC(C(=O)O)CC1 (stereo not given) | 10.4 µM |

| Compound | IC50 |
| --- | --- |
| Cc1ccc2nc(N3CCN(C(=O)c4ccc(F)cc4)CC3)c(C#N)cc2c1 | 23.3 µM |
| CCN(CC)Cc1c(O)c(Cl)cc2c(C)c(C)c(=O)oc12 | 21.1 µM |
| O=S(=O)(Cc1ccc(Cl)cc1)Nc1ccc2c(c1)OCO2 | > 50 µM (inactive) |
| O=c1[nH]c(Nc2ccccc2Cl)cc2ccccc12 | > 50 µM (inactive) |
| O=C1C=C(Nc2ccc(Cl)cc2Cl)CC(c2ccco2)C1 (stereo not given) | > 50 µM (inactive) |
| COc1cccc(NC(=O)Nc2ccc3c(c2)N(C)C(=O)CS3)c1 | > 50 µM (inactive) |
| COc1ccc(-n2cnc3cc(NCc4cccs4)ccc32)cc1 | > 50 µM (inactive) |
| COc1ccc(-c2c(C)sc(NC(=O)c3ccnn3C)c2C#N)cc1 | > 50 µM (inactive) |
| CCOC(=O)c1ccc2[nH]cc(C(C)=O)c(=O)c2c1 | 12.6 µM |
| COc1ccc(N2C(=O)N3[C@H](c4ccc(Br)cc4)[C@@H]4C(=O)N(C(C)(C)C)C(=O)[C@@H]4[C@]3(Cc3ccccc3)C2=O)cc1 | > 50 µM (inactive) |
| COc1cc(S(=O)(=O)NCCCN2CCOCC2)ccc1Cl | > 50 µM (inactive) |
| COc1ccc(C2c3c(ncn(Cc4ccco4)c3=N)Oc3ccc4ccccc4c32)cc1 (stereo not given) | > 50 µM (inactive) |
| O=C(Cn1c2ccccc2c(=O)c2ccccc21)Nc1ccccc1F | 5.51 µM |
| CC1CCN(c2cc(=O)n(C3CCCCC3)c(=O)[nH]2)CC1 | > 50 µM (inactive) |
| CC(=O)c1sc2nc(C)c3c(c2c1N)CCCC3 | 15.3 µM |
| CCc1ccc(C(=O)CSc2ncn[nH]2)cc1 | > 50 µM (inactive) |
| CCOC(=O)c1c(N2C(=O)Nc3ccccc3N2O)sc2c1CCCC2 | > 50 µM (inactive) |
| COc1c2ccccc2nc2ccccc12 | 8.46 µM |
| CC1(C)CC(=O)C=C(NNC(=O)C2CCCCC2)C1 | > 50 µM (inactive) |
| COC(=O)Cc1c(C)c2cc(Cl)c(OC(=O)c3ccco3)cc2oc1=O | 14.2 µM |
| COc1ccc(CNc2ccc3c(c2)ncn3-c2ccccc2OC)cc1 | > 50 µM (inactive) |
| CN(CCOc1ccccc1)CC(=O)Nc1ccc(Cl)cc1[N+](=O)[O-] | > 50 µM (inactive) |
| O=C(COC(=O)c1cccnc1Nc1ccccc1F)NCCN1C(=O)CSC1=O | > 50 µM (inactive) |
| Cc1ccc(C(=O)NNc2c3ccccc3nc3ccccc23)cc1 | > 50 µM (inactive) |
| COc1ccc(C2NCCc3c2[nH]c2ccccc32)cc1COc1ccc(F)cc1 (stereo not given) | > 50 µM (inactive) |
| Cc1ccc2cc(C#N)c(N3CCCC3)nc2c1C | > 50 µM (inactive) |
| Cc1ccc(C2C(C#N)=C(N)N(c3cccnc3)C3=C2C(=O)CCC3)c(C)c1 (stereo not given) | > 50 µM (inactive) |

| Compound | IC50 |
| --- | --- |
| Cc1nc2ccccc2c2oc(C(=O)NCCCN3CCC(C)CC3)cc12 | > 50 µM (inactive) |
| Cn1c(=O)c2c(ncn2CCOc2ccc(F)cc2)n(C)c1=O | > 50 µM (inactive) |
| COC(=O)C1=CN(C2CC2)C=C(C(=O)OC)C1c1ccc(C(F)(F)F)cc1 | 30.8 µM |
| N#C/C(=C\N1CCN(Cc2ccc3c(c2)OCO3)CC1)c1nc2ccccc2s1 | > 50 µM (inactive) |
| O=C1CCCN2N=C(SCC(=O)N3N=C(c4ccc(Br)cc4)CC3c3ccc(F)cc3)SC2=N1 (stereo not given) | > 50 µM (inactive) |
| Cc1cccc(NC(=O)c2cc3c(s2)-c2c(C)cccc2OC3)n1 | 7.45 µM |
| OCCNCc1cccc(OCc2ccccc2Cl)c1 | > 50 µM (inactive) |
| O=C(NNc1c2ccccc2nc2ccccc12)c1ccc(O)cc1O | > 50 µM (inactive) |
| CCOc1ccc(-n2c(N)c(C(=O)NCc3ccco3)c3nc4ccccc4nc32)cc1 | 25 µM |
| CCc1ccc(CNc2ccc3c(c2)ncn3C(C)(C)C)cc1 | > 50 µM (inactive) |
| COc1ccc(-c2c(C)c3ccc(O)cc3oc2=O)cc1OC | 37.2 µM |
| COc1ccc(NC(=O)c2ccc3snnc3c2)cc1 | > 50 µM (inactive) |
| Cc1[nH]nc2c1C(c1ccoc1)C(C#N)=C(N)O2 (stereo not given) | > 50 µM (inactive) |
| COc1ccc(NS(=O)(=O)c2cc(NC(=O)c3cccs3)ccc2N2CCOCC2)cc1 | > 50 µM (inactive) |
| N#Cc1c2ncn(CC(=O)c3ccc(Br)cc3)c(=O)c2c2n1CCC2 | > 50 µM (inactive) |
| CCOC(=O)c1c(N)n(CCCOC(=O)c2ccco2)c2nc3ccccc3nc12 | 23.7 µM |
| c1cncc(Nc2c3ccccc3nc3ccccc23)c1 | > 50 µM (inactive) |
| CCOC(=O)N1CCN(c2cc(=O)n(C3CCCCC3)c(=O)[nH]2)CC1 | > 50 µM (inactive) |
| CCCc1cc(=O)oc2c(CN3CCN(C)CC3)c(O)c(Cl)cc12 | 28.4 µM |
| Cc1ccc(C)c(NC(=S)N(C)CCc2ccccn2)c1 | > 50 µM (inactive) |
| O=C(c1ccco1)c1cc2c(ccc3ccccc32)oc1=O | 25 µM |
| Cc1cc(N2C(=O)C(O)=C(C(=O)c3cc4ccccc4o3)C2c2cccc(Cl)c2)no1 (stereo not given) | 36 µM |
| CCOC(=O)/C(=N\Nc1ccc(C(C)=O)cc1)c1csc(Nc2ccccc2)n1 | > 50 µM (inactive) |
| N#CC1=C(N)SC(N)=C(C#N)C1c1cccc(Oc2ccccc2)c1 | > 50 µM (inactive) |
| COc1ccccc1/C=C/c1nc(C#N)c(N(C)C)o1 | 17.4 µM |
| COC(=O)c1ccc2nc(NC(=O)C(C)(C)C)sc2c1 | > 50 µM (inactive) |
| CCn1c(=O)cc(N2CCC3(CC2)OCCO3)[nH]c1=O | > 50 µM (inactive) |

| Compound | IC50 |
| --- | --- |
| O=C(Cc1ccccc1)NNc1c2ccccc2nc2ccccc12 | > 50 µM (inactive) |
| CC(C)NC(=O)NC(=O)COC(=O)c1ccccc1O | > 50 µM (inactive) |
| CN1CC2=CC(O)CC3Oc4c(O)ccc(c4[C@]23C)C1 (stereo not given in full) | > 50 µM (inactive) |
| COc1cc(CN2CCN(Cc3c[nH]c4ccccc34)CC2CCO)cc(OC)c1 (stereo not given) | > 50 µM (inactive) |
| CC(C)(C)n1cnc2cc(NCc3ccc(Br)cc3)ccc21 | > 50 µM (inactive) |
| C=CCn1c(O)c(C(C)=NCCc2ccccc2)c(=O)[nH]c1=O | > 50 µM (inactive) |
| Cc1cccc(CN2CCc3c(OCC(=O)N4CCCc5ccccc54)cccc3C2=O)c1 | > 50 µM (inactive) |
| CCN(CC)Cc1c(O)ccc2c(C)c(CC(=O)OC)c(=O)oc12 | 14 µM |
| CCOc1ccc2nc(SCC(=O)NCc3ccc4c(c3)OCO4)[nH]c2c1 | > 50 µM (inactive) |
| COc1cc2c(cc1NC(=S)Nc1cccc3ccccc13)oc1ccccc12 | > 50 µM (inactive) |
| COC(=O)c1cc(C(=O)OC)[nH]n1 | > 50 µM (inactive) |
| Cc1c(CC(=O)N2CCN(C(=O)C3COc4ccccc4O3)CC2)c(=O)oc2c(C)c(O)ccc12 (stereo not given) | 20.8 µM |
| COc1cc(NC(=O)c2cc(-c3cccs3)on2)cc(OC)c1OC | > 50 µM (inactive) |
| COc1ccc(CNC(=O)C2CC(=O)N(C3CCCCC3)C2)cc1 (stereo not given) | > 50 µM (inactive) |
| N#C/C(=C\c1ccc(N2CCOCC2)o1)C(=O)N1CCOCC1 | 4.66 µM |
| NNc1nc2sc3c(c2c(=O)n1C1CCCCC1)CCN(Cc1ccccc1)C3 | 2.69 µM |
| CNc1cc(F)nc(F)n1 | 18.4 µM |
| N=c1oc2ccccc2cc1-c1nc(-c2ccc(Cl)cc2)cs1 | 34.2 µM |
| Oc1ccc(/C=N/Nc2ccc3ccccc3c2)c(O)c1 | > 50 µM (inactive) |
| Cn1c(N)c(C(=O)COC(=O)C2(c3ccc(F)cc3)CCCC2)c(=O)n(C)c1=O | > 50 µM (inactive) |
| Oc1c(C=Nc2ccccc2)sc(=S)n1Cc1ccccc1 | > 50 µM (inactive) |
| CSc1nc(NCC(C)C)c2c3c(sc2n1)CN(C)CC3 | 44.2 µM |
| CC1=NN(C(=O)Cn2nc([N+](=O)[O-])cc2C)C(O)(C(F)(F)F)C1 (stereo not given) | > 50 µM (inactive) |
| CCOCCCNC(=O)/C(C#N)=C/c1cc(Br)c(O)c(Br)c1 | 12.5 µM |
